Test results as given in the NIST ThermoML archive (doi:10.1016/j.tca.2015.08.032).
Several values for one entry are separate records, joined by “and”; a condition that tells them apart may be missing. Equal entries are not always repeated. ± gives the expanded uncertainty stated by the source.

Columns and labels:
[1] = for mass density / viscosity: 101.33 kPa, Liquid; for mass density: Pycnometric method; for Normal melting temperature: Crystal, DTA; for viscosity: Cone and plate viscometry
[2] = molar heat capacity at constant pressure; conditions: 101.33 kPa, Liquid, Small sample (50 mg) DSC

C=Cn1cc[n+](CC(C[n+]2ccn(C)c2)N=[N+]=[N-])c1.[Br-].[Br-] (stereo not given)
Conditions	mass density [kg/m3]
[1], 298 K	1560 ± 20

Conditions	Normal melting temperature [°C]
[1]	23 ± 1

Cn1cc[n+](CC(CBr)N=[N+]=[N-])c1.[Br-] (stereo not given) [1-(2-azido-3-bromopropyl)-3-methyl-3H-imidazol-1-ium bromide]
Conditions	mass density [kg/m3]
[1], 298 K	1360 ± 10

Conditions	Normal melting temperature [°C]
[1]	10 ± 1

Cn1cc[n+](CC(Br)CN=[N+]=[N-])c1.[Br-] (stereo not given) [1-(3-azido-2-bromopropyl)-3-methyl-3H-imidazol-1-ium bromide]
Conditions	mass density [kg/m3]
[1], 298 K	1340 ± 10

Conditions	Normal melting temperature [°C]
[1]	17 ± 1

Cn1cc[n+](CC(CBr)N=[N+]=[N-])c1.N#C[N-]C#N (stereo not given)
[1]
Conditions	mass density [kg/m3]	viscosity
298 K	1310 ± 10	57.01 ± 5.9 mPa·s and 56.9 ± 5.9 mPa·s
299 K	–	53.28 ± 5.5 mPa·s
300 K	–	49.6 ± 5.2 mPa·s and 49.44 ± 5.2 mPa·s
301 K	–	46.03 ± 4.8 mPa·s
302 K	–	42 ± 4.4 mPa·s and 42.05 ± 4.4 mPa·s
303.1 K	–	38.84 ± 4 mPa·s
304 K	–	35.9 ± 3.7 mPa·s and 35.89 ± 3.7 mPa·s
306 K	–	30.94 ± 3.2 mPa·s
306.1 K	–	30.9 ± 3.2 mPa·s
307.9 K	–	26.97 ± 2.8 mPa·s and 26.9 ± 2.8 mPa·s and 26.98 ± 2.8 mPa·s
309.8 K	–	23.3 ± 2.4 mPa·s
313.9 K	–	17.9 ± 1.9 mPa·s
317.9 K	–	13.9 ± 1.4 mPa·s
322 K	–	10.8 ± 1.1 mPa·s
325.9 K	–	8.8 ± 0.9 mPa·s
331.8 K	–	5.9 ± 0.6 mPa·s
336 K	–	4.8 ± 0.5 mPa·s
339.9 K	–	4.1 ± 0.4 mPa·s
344 K	–	3.5 ± 0.4 mPa·s
347.9 K	–	3.1 ± 0.3 mPa·s
353 K	–	2.5 ± 0.3 mPa·s
357.9 K	–	2.2 ± 0.2 mPa·s
361.9 K	–	2 ± 0.2 mPa·s

Conditions	Normal melting temperature [°C]
[1]	-2 ± 1

Cn1cc[n+](CC(Br)CN=[N+]=[N-])c1.N#C[N-]C#N (stereo not given)
Conditions	mass density [kg/m3]
[1], 298 K	1280 ± 10

Conditions	Normal melting temperature [°C]
[1]	6 ± 1

C=Cn1cc[n+](CC(C[n+]2ccn(C)c2)N=[N+]=[N-])c1.N#C[N-]C#N.N#C[N-]C#N (stereo not given)
Conditions	mass density [kg/m3]	molar heat capacity at constant pressure [J/K/mol]	viscosity [mPa·s]
[1], 298 K	1490 ± 20	–	83.9 ± 9.5
[1], 298.9 K	–	–	66.3 ± 7.3
[1], 300 K	–	–	58.4 ± 6.2
[1], 300.9 K	–	–	53 ± 5.5
[1], 303 K	–	–	45.8 ± 4.8
[1], 307.9 K	–	–	35.6 ± 3.7
[1], 312.9 K	–	–	29.9 ± 3.1
[1], 317.9 K	–	–	26.2 ± 2.7
[1], 322.9 K	–	–	23.4 ± 2.4
[1], 327.9 K	–	–	20.8 ± 2.1
[1], 332.9 K	–	–	18.7 ± 1.9
[1], 337.9 K	–	–	17.1 ± 1.8
[1], 342.9 K	–	–	16.4 ± 1.7
[1], 347.9 K	–	–	15.8 ± 1.6
[1], 353 K	–	–	15.2 ± 1.6
[1], 357.9 K	–	–	14.6 ± 1.5
[1], 362.9 K	–	–	14 ± 1.4
[2], 298 K	–	400 ± 25	–
[2], 303 K	–	409.7 ± 25	–
[2], 323 K	–	452 ± 28	–

Conditions	Normal melting temperature [°C]
[1]	19 ± 1
